According to PubChem BioAssay (NCI):
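48-hour exposure; five concentrations; linearly interpolated endpoints. GI50 = concentration required for 50% inhibition of growth. Definition used: TGI = concentration required for complete inhibition of growth.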

Columns and labels:
Test in all cases: NCI-60 cell line screen, 48 h
HOP-92 NSCLC = system: HOP-92 NSCLC
SK-OV-3 ovarian = system: SK-OV-3 ovarian
ACHN renal = system: ACHN renal
KM12 colon = system: KM12 colon
DU-145 prostate = system: DU-145 prostate
CAKI-1 renal = system: CAKI-1 renal
TK-10 renal = system: TK-10 renal
SK-MEL-5 melanoma = system: SK-MEL-5 melanoma
M14 melanoma = system: M14 melanoma
NCI-H460 lung = system: NCI-H460 lung
MDA-MB-435 = system: MDA-MB-435
SF-295 CNS = system: SF-295 CNS
SF-268 CNS = system: SF-268 CNS
SK-MEL-28 melanoma = system: SK-MEL-28 melanoma
OVCAR-4 ovarian = system: OVCAR-4 ovarian
786-0 renal = system: 786-0 renal
SR leukemia = system: SR leukemia
MDA-MB-231 breast = system: MDA-MB-231 breast
MCF7 breast = system: MCF7 breast
U251 CNS = system: U251 CNS
EKVX NSCLC = system: EKVX NSCLC
LOX IMVI melanoma = system: LOX IMVI melanoma
SF-539 CNS = system: SF-539 CNS
SN12C renal = system: SN12C renal
NCI-H226 lung = system: NCI-H226 lung
HCT-15 colon = system: HCT-15 colon
OVCAR-5 ovarian = system: OVCAR-5 ovarian
COLO 205 colon = system: COLO 205 colon
SNB-19 CNS = system: SNB-19 CNS
SK-MEL-2 melanoma = system: SK-MEL-2 melanoma
SNB-75 CNS = system: SNB-75 CNS
HOP-62 NSCLC = system: HOP-62 NSCLC
IGROV1 ovarian = system: IGROV1 ovarian
NCI-H522 lung = system: NCI-H522 lung
UO-31 renal = system: UO-31 renal
HL-60(TB) leukemia = system: HL-60(TB) leukemia
SW-620 colon = system: SW-620 colon
MOLT-4 leukemia = system: MOLT-4 leukemia
UACC-257 melanoma = system: UACC-257 melanoma
K-562 leukemia = system: K-562 leukemia
A498 renal = system: A498 renal
HT29 colon = system: HT29 colon
PC-3 prostate = system: PC-3 prostate
OVCAR-8 ovarian = system: OVCAR-8 ovarian
UACC-62 melanoma = system: UACC-62 melanoma
CCRF-CEM leukemia = system: CCRF-CEM leukemia
OVCAR-3 ovarian = system: OVCAR-3 ovarian
HS 578T breast = system: HS 578T breast
MALME-3M melanoma = system: MALME-3M melanoma
NCI/ADR-RES ovarian = system: NCI/ADR-RES ovarian
HCT-116 colon = system: HCT-116 colon
NCI-H23 lung = system: NCI-H23 lung
RXF 393 renal = system: RXF 393 renal
A549 NSCLC = system: A549 NSCLC
RPMI-8226 leukemia = system: RPMI-8226 leukemia
HCC-2998 colon = system: HCC-2998 colon
BT-549 breast = system: BT-549 breast
T-47D breast = system: T-47D breast

Brc1ccc2[nH]cc(-c3nn4cc(-c5nccs5)nc4s3)c2c1
GI50 (HOP-92 NSCLC): 1.77 µM
TGI (HOP-92 NSCLC): 4.56 µM
GI50 (SK-OV-3 ovarian): 10.3 µM
TGI (SK-OV-3 ovarian): 26.3 µM
GI50 (ACHN renal): 2.39 µM
TGI (ACHN renal): 7.4 µM
GI50 (KM12 colon): 7.16 µM
TGI (KM12 colon): > 100 µM
GI50 (DU-145 prostate): 5.39 µM
TGI (DU-145 prostate): 17.7 µM
GI50 (CAKI-1 renal): 2.46 µM
TGI (CAKI-1 renal): 7.73 µM
GI50 (TK-10 renal): 9.55 µM
TGI (TK-10 renal): 24.2 µM
GI50 (SK-MEL-5 melanoma): 3.86 µM
TGI (SK-MEL-5 melanoma): 18 µM
GI50 (M14 melanoma): 3.58 µM
TGI (M14 melanoma): 16.1 µM
GI50 (NCI-H460 lung): 2.51 µM
TGI (NCI-H460 lung): 7.36 µM
GI50 (MDA-MB-435): 4.4 µM
TGI (MDA-MB-435): 20.1 µM
GI50 (SF-295 CNS): 3 µM
TGI (SF-295 CNS): 9.89 µM
GI50 (SF-268 CNS): 7.98 µM
TGI (SF-268 CNS): 68.9 µM
GI50 (SK-MEL-28 melanoma): 9.15 µM
TGI (SK-MEL-28 melanoma): > 59.3 µM
GI50 (OVCAR-4 ovarian): 5.04 µM
TGI (OVCAR-4 ovarian): 14.9 µM
GI50 (786-0 renal): 2 µM
TGI (786-0 renal): 4.11 µM
GI50 (SR leukemia): 5.21 µM
TGI (SR leukemia): > 50.7 µM
GI50 (MDA-MB-231 breast): 1.82 µM
TGI (MDA-MB-231 breast): 5.04 µM
GI50 (MCF7 breast): 3.23 µM
TGI (MCF7 breast): > 35.5 µM
GI50 (U251 CNS): 8.49 µM
TGI (U251 CNS): 21.3 µM
GI50 (EKVX NSCLC): 4.45 µM
TGI (EKVX NSCLC): > 56.7 µM
GI50 (LOX IMVI melanoma): 2.41 µM
TGI (LOX IMVI melanoma): 10.3 µM
GI50 (SF-539 CNS): 3.14 µM
TGI (SF-539 CNS): 12.2 µM
GI50 (SN12C renal): 8.1 µM
TGI (SN12C renal): > 50.9 µM
GI50 (NCI-H226 lung): 2.28 µM
TGI (NCI-H226 lung): 8.95 µM
GI50 (HCT-15 colon): 3.25 µM
TGI (HCT-15 colon): > 34.7 µM
GI50 (OVCAR-5 ovarian): 5.88 µM
TGI (OVCAR-5 ovarian): 22.1 µM
GI50 (COLO 205 colon): 5.31 µM
TGI (COLO 205 colon): 21.9 µM
GI50 (SNB-19 CNS): 6.62 µM
TGI (SNB-19 CNS): 22.6 µM
GI50 (SK-MEL-2 melanoma): 28.6 µM
TGI (SK-MEL-2 melanoma): > 100 µM
GI50 (SNB-75 CNS): 1.79 µM
TGI (SNB-75 CNS): 7.94 µM
GI50 (HOP-62 NSCLC): 2.46 µM
TGI (HOP-62 NSCLC): 11.2 µM
GI50 (IGROV1 ovarian): 2.58 µM
TGI (IGROV1 ovarian): 14.6 µM
GI50 (NCI-H522 lung): 9.76 µM
TGI (NCI-H522 lung): 36.9 µM
GI50 (UO-31 renal): 1.73 µM
TGI (UO-31 renal): 6.57 µM
GI50 (HL-60(TB) leukemia): 22.8 µM
TGI (HL-60(TB) leukemia): > 100 µM
GI50 (SW-620 colon): 6.68 µM
TGI (SW-620 colon): > 58.1 µM
GI50 (MOLT-4 leukemia): 2.58 µM
TGI (MOLT-4 leukemia): > 100 µM
GI50 (UACC-257 melanoma): 10.5 µM
TGI (UACC-257 melanoma): > 62.5 µM
GI50 (K-562 leukemia): 2.84 µM
TGI (K-562 leukemia): 11.9 µM
GI50 (A498 renal): 16 µM
TGI (A498 renal): 32 µM
GI50 (HT29 colon): 7.9 µM
TGI (HT29 colon): > 69.1 µM
GI50 (PC-3 prostate): 2.36 µM
TGI (PC-3 prostate): 10.8 µM
GI50 (OVCAR-8 ovarian): 2.53 µM
TGI (OVCAR-8 ovarian): 6.77 µM
GI50 (UACC-62 melanoma): > 57.7 µM
TGI (UACC-62 melanoma): > 100 µM
GI50 (CCRF-CEM leukemia): 3.06 µM
TGI (CCRF-CEM leukemia): > 40 µM
GI50 (OVCAR-3 ovarian): 2.58 µM
TGI (OVCAR-3 ovarian): 7.62 µM
GI50 (HS 578T breast): 4.88 µM
TGI (HS 578T breast): > 64 µM
GI50 (MALME-3M melanoma): 3.71 µM
TGI (MALME-3M melanoma): 12.1 µM
GI50 (NCI/ADR-RES ovarian): 2.28 µM
TGI (NCI/ADR-RES ovarian): 7.1 µM
GI50 (HCT-116 colon): 1.82 µM
TGI (HCT-116 colon): 3.44 µM
GI50 (NCI-H23 lung): 2.49 µM
TGI (NCI-H23 lung): 10.2 µM
GI50 (RXF 393 renal): 2.32 µM
TGI (RXF 393 renal): 5.01 µM
GI50 (A549 NSCLC): 2.6 µM
TGI (A549 NSCLC): 7.52 µM
GI50 (RPMI-8226 leukemia): 2.25 µM
TGI (RPMI-8226 leukemia): 9.84 µM
GI50 (HCC-2998 colon): 2.65 µM
TGI (HCC-2998 colon): > 22.3 µM
GI50 (BT-549 breast): 3.22 µM
TGI (BT-549 breast): 11.8 µM
GI50 (T-47D breast): 3.19 µM
TGI (T-47D breast): > 75.7 µM
